These results are taken from article PMC8580996, “2-Oxoglutarate derivatives can selectively enhance or inhibit the activity of human oxygenases” (Nature Communications, 2021).

In test [1] the target is T1, FIH (Homo sapiens, UniProt Q9NWT6). The test is described as follows: SPE-MS FIH turnover (cosubstrate) assay in the absence of 2OG. In kind it is biochemical. The note with it: 330 μM 2OG or 2OG derivative, no 2OG, t = 15 min. The protocol:
The ability of 35 synthetic C3/C4-substituted 2OG derivatives, which were prepared via a reported procedure (Supplementary Fig. 1 and Supplementary Methods)[21], to sustain catalysis by purified recombinant FIH in the absence of 2OG was examined using an assay directly monitoring substrate depletion and product formation (i.e., a +16 Da mass shift) by solid-phase extraction (SPE) coupled to mass spectrometry (SPE-MS)[44],[45]. […] (i.e. CA1–20)[47], were used as FIH substrates to test for potential substrate-dependent differences in terms of cosubstrate analog selectivity.
Assay samples were aspirated under vacuum for 0.6 s and loaded onto a C4 SPE cartridge. After loading, the C4 SPE cartridge was washed with 0.1%v/v aqueous formic acid to remove non-volatile buffer salts (5.5 s, 1.5 mL/min). […] The mass spectrometer was operated using the MassHunter Workstation B.08.00 software (Agilent), the mass spectrometer parameters were: capillary voltage (4000 V), nozzle voltage (1000 V), fragmentor voltage (365 V), gas temperature (280 °C), gas flow (13 L/min), sheath gas temperature (350 °C), sheath gas flow (12 L/min). […] Data were exported into Microsoft Excel and used to calculate the % conversion of the hydroxylation reaction using the equation: % conversion = 100 × (integral product peptide)/(integral substrate peptide+integral product peptide). […] Z′-factors were calculated according to the cited literature using Microsoft Excel (Supplementary Fig. 26)[83].

Test [2] has as its target T1, FIH. The test is described as follows: Competition assay in a single reaction vessel, FIH-catalyzed hydroxylation (SPE-MS). The test is classed as biochemical. Particulars: Supplementary Fig 8b, 100 μM 28, 0 μM 2OG. The method, then:
(§1) Mean of three independent runs (n = 3; mean ± SD). […] Cosubstrates: a 20 μM 2OG; b 20 μM 2OG; c 20 μM 1; d 20 μM 12; e 20 μM 12 and 100 μM 2OG; f 100 μM 14. Source data are provided as a Source Data file.
(§2) Mean of three independent runs (n = 3; mean ± SD). […] Source data are provided as a Source Data file.
(§3) Peptide turnover was monitored by SPE-MS using the same instrument configuration (with the exception that the peptides were eluted from the SPE cartridge with 0.1%v/v aqueous formic acid in 80/20 v/v acetonitrile/water) as described above.
(§4) FIH and AspH-catalyzed peptide hydroxylations were analyzed simultaneously using SPE-MS as described in the
(§5) Methods section; competition experiments were performed in the same reaction vessel using equimolar 2OG
(§6) oxygenase and substrate concentrations. […]
(§7) Source data are provided as a Source Data file.
(§8) FIH and AspH-catalyzed peptide hydroxylations were analyzed simultaneously using SPE-
(§9) MS as described in the Methods section; competition experiments were performed in the same reaction vessel
(§10) using equimolar 2OG oxygenase and substrate concentrations. […]
(§11) 2OG, 100 μM 14. Source data are provided as a Source Data file.

Test [3] concerns the target T2, AspH (Homo sapiens, UniProt Q12797).
T2 construct: the tetratricopeptide repeat domain (His6-AspH315-758), was produced and purified as previously reported; made in house
T2 sequence (Q12797 315-758): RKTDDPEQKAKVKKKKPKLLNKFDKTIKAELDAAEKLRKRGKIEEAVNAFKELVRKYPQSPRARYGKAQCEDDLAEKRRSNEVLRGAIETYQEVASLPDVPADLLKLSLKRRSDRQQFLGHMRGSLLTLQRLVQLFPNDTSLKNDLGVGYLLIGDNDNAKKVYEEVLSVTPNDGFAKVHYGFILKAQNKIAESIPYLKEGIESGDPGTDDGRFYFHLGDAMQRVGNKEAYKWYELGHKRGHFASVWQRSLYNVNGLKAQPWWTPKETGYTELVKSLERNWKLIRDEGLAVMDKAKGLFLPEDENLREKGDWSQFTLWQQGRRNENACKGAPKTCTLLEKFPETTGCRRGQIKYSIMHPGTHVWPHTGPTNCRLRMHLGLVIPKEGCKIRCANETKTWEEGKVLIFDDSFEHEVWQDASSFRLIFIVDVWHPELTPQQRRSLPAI
Particulars: 0.05 μM AspH, 1.0 μM hFX-CP101-119, 3.0 μM 2OG, ref 21 (supplementary ref 1); cited from earlier work.

The target in test [4] is T1, FIH. The test is described as follows: SPE-MS FIH inhibition assay. In kind it is biochemical. Particulars: source data of Table 3, single independent replicates. The method, then: FIH inhibition assays were performed as described, using cosubstrate/cofactor stock solutions (L-ascorbic acid, LAA: 50 mM in MQ-grade water; 2-oxoglutarate, 2OG: 10 mM in MQ-grade water; ammonium iron(II) sulfate hexahydrate, FAS, (NH4)2Fe(SO4)2·6H2O: 400 mM in 20 mM HCl diluted to 1 mM in MQ-grade water), which were freshly prepared from commercially-sourced solids (Sigma Aldrich).
Dimethyl sulfoxide (DMSO) solutions of the 2OG derivatives were dry dispensed across 384-well polypropylene assay plates (Greiner) in an approximately threefold and 11-point dilution series (100 μM top concentration; the final DMSO assay concentration was kept constant at 0.5%v/v) using an ECHO 550 acoustic dispenser (Labcyte). […] Each reaction was performed in technical duplicates in adjacent wells of the assay plates; additionally, assays were performed in two independent duplicates on different days using different inhibitor solutions.
The Enzyme Mixture (25 μL/well), containing 0.3 μM His6-FIH in buffer (50 mM Tris, 50 mM NaCl, pH 7.5), was dispensed across the inhibitor-containing 384-well assay plates with a multidrop dispenser (ThermoFischer Scientific) at 20 °C under an ambient atmosphere. The plates were subsequently centrifuged (1000 rpm, 15 s) and incubated for 15 min at 20 °C. The Substrate Mixture (25 μL/well), containing 10.0 μM HIF-1α788–822[37] substrate, 200 μM LAA, 20.0 μM 2OG, and 20.0 μM FAS in buffer (50 mM Tris, 50 mM NaCl, pH 7.5), was added using the multidrop dispenser. The plates were centrifuged (1000 rpm, 15 s) and after incubating for 15 min, the enzyme reaction was stopped by the addition of 10%v/v aqueous formic acid (5 μL/well). The plates were then centrifuged (1000 rpm, 30 s) and analyzed by MS.
MS-analyses were performed using a RapidFire RF 365 high-throughput sampling robot (Agilent) attached to an iFunnel Agilent 6550 accurate-mass quadrupole time-of-flight mass spectrometer operated in the positive ionization mode. Assay samples were aspirated under vacuum for 0.6 s and loaded onto a C4 SPE cartridge. After loading, the C4 SPE cartridge was washed with 0.1%v/v aqueous formic acid to remove non-volatile buffer salts (5.5 s, 1.5 mL/min). […] The mass spectrometer was operated using the MassHunter Workstation B.08.00 software (Agilent), the mass spectrometer parameters were: capillary voltage (4000 V), nozzle voltage (1000 V), fragmentor voltage (365 V), gas temperature (280 °C), gas flow (13 L/min), sheath gas temperature (350 °C), sheath gas flow (12 L/min). The m/z + 2 (for CA1–20) or +3 (for HIF-1α788–822) charge states of the peptide (substrate) and the hydroxylated peptide (product) were used to extract ion chromatogram data, peak areas were integrated using RapidFire Integrator 4.3.0 (Agilent). Data were exported into Microsoft Excel and used to calculate the % conversion of the hydroxylation reaction using the equation: % conversion = 100 × (integral product peptide)/(integral substrate peptide+integral product peptide). […] Z′-factors were calculated according to the cited literature using Microsoft Excel (Supplementary Fig. 26)[83].
SPE-MS FIH inhibition assays were performed as described in the Methods section.
Tris, 50 mM NaCl, pH 7.5, 20 °C). […]

The target in test [5] is T2, AspH. The experiment in a line: Competition assay in a single reaction vessel, AspH-catalyzed hydroxylation (SPE-MS). In kind it is biochemical. Particulars: Supplementary Fig 8b, 100 μM 28, 0 μM 2OG, after 35 min. The method, then:
as §1, §2, §3, §4, §5, §6, §7, §8, §9, §10, §11

Test [6] has as its target T2, AspH. Details: method as in PMID 34163896. Particulars: hFX-CP101–119 substrate, 330 μM 2OG or 2OG derivative, t = 15 min; cited from earlier work.

“Also recorded” adds a separate entry of the source.

T1 sequence (Q9NWT6 whole entry): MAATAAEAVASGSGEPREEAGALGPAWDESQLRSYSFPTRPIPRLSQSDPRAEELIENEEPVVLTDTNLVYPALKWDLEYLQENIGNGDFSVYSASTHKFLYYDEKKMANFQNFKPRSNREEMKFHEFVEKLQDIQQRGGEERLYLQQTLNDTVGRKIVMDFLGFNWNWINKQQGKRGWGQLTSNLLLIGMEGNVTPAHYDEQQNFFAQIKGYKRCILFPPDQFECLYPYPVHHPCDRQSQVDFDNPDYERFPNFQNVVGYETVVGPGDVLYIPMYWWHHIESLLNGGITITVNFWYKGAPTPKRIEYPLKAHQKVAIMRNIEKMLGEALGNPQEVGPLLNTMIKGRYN

With `O=C(O)C(=O)c1ccc(C(=O)O)cc1` [compound 28, 4-Carboxyphenylglyoxylic acid], the “FIH activity, %-substrate conversion” value on FIH [1] (CA1–20 substrate) was approximately 10%; at FIH [1] (HIF-1α788–822 substrate) it was less than 1%. In addition, the FIH cosubstrate activity entry on FIH [2] was “no cosubstrate activity”. The “IC50 AspH” value at AspH [3] is “inactive; also recorded: neither inhibits AspH nor FIH catalysis”. Further, at FIH [4], the “FIH IC50, independent replicate” value is recorded as “not inhibiting”. On AspH [5], the AspH conversion was ~ 40%. In addition, on AspH [6], the “AspH activity, %-substrate conversion” value is approximately 80%.
